Results: patent publication US11365199B2, “Pyrazole compounds as modulators of FSHR and uses thereof” (Merck Patent GmbH, priority 2013, dated 2022)
Structures can show the parent of a compound that is named as a salt.

molecular target: T1, FSHR (Homo sapiens, UniProt P23945); assay: EC50 of cyclic AMP production in CHO FSHR cells + EC20 FSH (Assay A); format: cell-based; conditions: not given
T1 construct: expressed in transfected cells; host or cells: CHO (Cho-FSHR-LUC-1-1-43)
T1 sequence (P23945 18-695): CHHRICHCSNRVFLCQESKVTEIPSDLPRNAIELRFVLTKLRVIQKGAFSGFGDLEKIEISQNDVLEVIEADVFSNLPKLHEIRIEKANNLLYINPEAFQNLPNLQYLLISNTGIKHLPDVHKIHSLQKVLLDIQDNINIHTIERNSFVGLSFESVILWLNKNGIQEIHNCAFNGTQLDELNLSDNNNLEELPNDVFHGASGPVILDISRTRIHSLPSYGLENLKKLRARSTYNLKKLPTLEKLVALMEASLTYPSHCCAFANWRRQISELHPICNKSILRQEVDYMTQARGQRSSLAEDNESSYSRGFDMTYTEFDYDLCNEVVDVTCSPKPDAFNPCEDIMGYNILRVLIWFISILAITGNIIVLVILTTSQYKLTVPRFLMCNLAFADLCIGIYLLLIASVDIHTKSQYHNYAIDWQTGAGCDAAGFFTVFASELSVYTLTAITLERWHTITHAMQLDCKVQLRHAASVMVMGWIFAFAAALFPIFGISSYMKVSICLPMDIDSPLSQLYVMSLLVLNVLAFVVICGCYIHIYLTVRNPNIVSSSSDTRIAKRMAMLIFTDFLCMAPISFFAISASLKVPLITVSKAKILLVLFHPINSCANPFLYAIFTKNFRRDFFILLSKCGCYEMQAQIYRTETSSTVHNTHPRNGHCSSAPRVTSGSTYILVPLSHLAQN
Procedure, shortened: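 cAMP HTRF read-out (665 nm/620 nm ratio) after 1 h at 37° C of Cho-FSHR-LUC cells treated with serially diluted test compound plus EC20 FSH ([…]) and IBMX (final 200 μM). Responses given as percent of maximal FSH-standard effect.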

Compound	EC50
COc1ccc2c(c1)OCc1c(C(=O)N(C)C(C)(C)C)nn(-c3ccsc3)c1-2 [Compound 133, 7-Methoxy-1-thiophen-3-yl-1,4-dihydro-chromeno[4,3-c]pyrazole-3-carboxylic Acid tert-butyl-methyl-amide]	1000 to 5000 nM

same assay, conditions: CHO FSHR cells + EC20 FSH, cAMP HTRF; read-out: Assay A: EC50 of cyclic AMP production

Compound	EC50
COc1cc2c(cc1-c1ccn(C)c1)-c1c(c(C(=O)N[C@H]3CC[C@@H](O)C3)nn1-c1ccsc1)CO2 [Compound 173, 7-Methoxy-8-(1-methyl-1H-pyrrol-3-yl)-1-thiophen-3-yl-1,4-dihydro-chromeno[4,3-c]pyrazole-3-carboxylic acid ((1S,3R)-3-hydroxy-cyclopentyl)-amide]	> 5000 nM
CCOC(=O)C1CCN(C(=O)c2nn(-c3ccsc3)c3c2COc2cc(OC)c(C=C(C)C)cc2-3)CC1 [Compound 14, 1-{7-Methoxy-8-(2-methyl-propenyl)-1-thiophen-3-yl-1,4-dihydro-chromeno[4,3-c]pyrazole-3-carbonyl]-piperidine-4-carboxylic acid ethyl ester]	1000 to 5000 nM
COc1cc2c(cc1-c1sccc1C)-c1c(c(C(=O)N(C)C(C)(C)C)nn1-c1ccsc1)CO2 [Compound 88, 7-Methoxy-8-(3-methyl-thiophen-2-yl)-1-thiophen-3-yl-1,4-dihydro-chromeno[4,3-c]pyrazole-3-carboxylic acid tert-butyl-methyl-amide]	< 100 nM
COc1cc2c(cc1-c1cscn1)-c1c(c(C(=O)N(C)C(C)(C)C)nn1-c1ccsc1)CO2 [Compound 81, 7-Methoxy-8-thiazol-4-yl-1-thiophen-3-yl-1,4-dihydro-chromeno[4,3-c]pyrazole-3-carboxylic acid tert-butyl-methyl-amide]	< 100 nM
[2H]C([2H])([2H])N(CCCN(C(=O)c1nn(-c2ccsc2)c2c1COc1cc(OC)c(CC(C)C)cc1-2)C([2H])([2H])[2H])C(C)=O [Compound 84]	> 5000 nM
COc1cc2c(cc1-c1ccn(C)c1)-c1c(c(C(=O)N(C)CC3(C)COC3)nn1-c1ccsc1)CO2 [Compound 101, 7-Methoxy-8-(1-methyl-1H-pyrrol-3-yl)-1-thiophen-3-yl-1,4-dihydro-chromeno[4,3-c]pyrazole-3-carboxylic acid methyl-(3-methyl-oxetan-3-ylmethyl)-amide]	< 100 nM
COc1cc2c(cc1-c1c[nH]nc1C)-c1c(c(C(=O)NC3CCOC3)nn1-c1ccsc1)CO2 (centres unmarked) [Compound 135, 7-Methoxy-8-(3-methyl-1H-pyrazol-4-yl)-1-thiophen-3-yl-1,4-dihydro-chromeno[4,3-c]pyrazole-3-carboxylic acid (tetrahydro-furan-3-yl)-amide]	1000 to 5000 nM
COc1cc2c(cc1S(=O)(=O)C1CC1)-c1c(c(C(=O)N3CCOCC3(C)C)nn1-c1ccsc1)CO2 [Compound 106, (8-Cyclopropanesulfonyl-7-methoxy-1-thiophen-3-yl-1,4-dihydro-chromeno[4,3-c]pyrazol-3-yl)-(3,3-dimethyl-morpholin-4-yl)-methanone]	100 to 1000 nM
COc1cc2c(cc1C=C(C)C)-c1c(c(C(=O)N(C)C(C)(C)CO)nn1-c1ccsc1)CO2 [Compound 40, 7-Methoxy-8-(2-methyl-propenyl)-1-thiophen-3-yl-1,4-dihydro-chromeno[4,3-c]pyrazole-3-carboxylic acid (2-hydroxy-1,1-dimethyl-ethyl)-methyl-amide]	< 100 nM
COc1cc2c(cc1-c1ccsc1C)-c1c(c(C(=O)N(C)C(C)(C)C)nn1-c1ccsc1)CO2 [Compound 75]	< 100 nM
COc1cc2c(cc1S(=O)(=O)C(C)C)-c1c(c(C(=O)NC3(C)COC3)nn1-c1ccsc1)CO2 [Compound 188, 7-Methoxy-8-(propane-2-sulfonyl)-1-thiophen-3-yl-1,4-dihydro-chromeno[4,3-c]pyrazole-3-carboxylic Acid (3-methyl-oxetan-3-yl)-amide]	> 5000 nM
CCCn1nc(C)cc1-c1cc2c(cc1OC)OCc1c(C(=O)N3CCOCC3(C)C)nn(-c3ccsc3)c1-2 [Compound 212, (3,3-Dimethyl-morpholin-4-yl)-[7-methoxy-8-(5-methyl-2-propyl-2H-pyrazol-3-yl)-1-thiophen-3-yl-1,4-dihydro-chromeno[4,3-c]pyrazol-3-yl]-methanone]	< 100 nM
[2H]C([2H])([2H])N(CCCN(C(=O)C1CCC1)C([2H])([2H])[2H])C(=O)c1nn(-c2ccsc2)c2c1COc1cc(OC)c(C=C(C)C)cc1-2 [Compound 69]	100 to 1000 nM
COc1cc2c(cc1-c1c[nH]nc1C)-c1c(c(C(=O)NC3CC(O)C3)nn1-c1ccsc1)CO2 (centres unmarked) [Compound 138, 7-Methoxy-8-(3-methyl-1H-pyrazol-4-yl)-1-thiophen-3-yl-1,4-dihydro-chromeno[4,3-c]pyrazole-3-carboxylic acid (3-hydroxy-cyclobutyl)-amide]	> 5000 nM
COc1cc2c(cc1-c1ccn(C)c1)-c1c(c(C(=O)O[C@H]3CC[C@H](N)C3)nn1-c1ccsc1)CO2 [Compound 181, 7-Methoxy-8-(1-methyl-1H-pyrrol-3-yl)-1-thiophen-3-yl-1,4-dihydro-chromeno[4,3-c]pyrazole-3-carboxylic Acid (1S,3S)-3-amino-cyclopentyl Ester]	< 100 nM
COc1cc2c(cc1C=C(C)C)-c1c(c(C(=O)N3CCC(O)C3)nn1-c1ccsc1)CO2 (centres unmarked) [Compound 47, (3-Hydroxy-pyrrolidin-1-yl)-[7-methoxy-8-(2-methyl-propenyl)-1-thiophen-3-yl-1,4-dihydro-chromeno[4,3-c]pyrazol-3-yl]-methanone]	1000 to 5000 nM
[2H]C([2H])([2H])N(CCN1CCOC1=O)C(=O)c1nn(-c2ccsc2)c2c1COc1cc(OC)c(-c3cnn(C([2H])([2H])[2H])c3)cc1-2 [Compound 78]	< 100 nM
COc1cc2c(cc1-c1ccn(C)n1)-c1c(c(C(=O)N(C)C3COC3)nn1-c1ccsc1)CO2 [Compound 104, 7-Methoxy-8-(1-methyl-1H-pyrazol-3-yl)-1-thiophen-3-yl-1,4-dihydro-chromeno[4,3-c]pyrazole-3-carboxylic acid methyl-oxetan-3-yl-amide]	1000 to 5000 nM
COc1cc2c(cc1-c1cc(C)n(C)c1C)-c1c(c(C(=O)N3CCOCC3(C)C)nn1-c1ccsc1)CO2 [Compound 120, (3,3-Dimethyl-morpholin-4-yl)-[7-methoxy-1-thiophen-3-yl-8-(1,2,5-trimethyl-1H-pyrrol-3-yl)-1,4-dihydro-chromeno[4,3-c]pyrazol-3-yl]-methanone]	< 100 nM
COc1cc2c(cc1-c1cnn(CC(C)C)c1)-c1c(c(C(=O)N3CCOCC3(C)C)nn1-c1ccsc1)CO2 [Compound 192, (3,3-Dimethyl-morpholin-4-yl)-[8-(1-isobutyl-1H-pyrazol-4-yl)-7-methoxy-1-thiophen-3-yl-1,4-dihydro-chromeno[4,3-c]pyrazol-3-yl]-methanone]	< 100 nM
COc1cc2c(cc1C=C(C)C)-c1c(c(C(=O)NCCCc3nnn[nH]3)nn1-c1ccsc1)CO2 [Compound 11, 7-Methoxy-8-(2-methyl-propenyl)-1-thiophen-3-yl-1,4-dihydro-chromeno[4,3-c]pyrazole-3-carboxylic acid [3-(1H-tetrazol-5-yl)-propyl]-amide; trifluoro-acetic acid salt]	1000 to 5000 nM
COc1cc2c(cc1C=C(C)C)-c1c(c(C(=O)N(C)CCCN(C)C(C)=O)nn1-c1ccsc1)CO2 [Compound 32]	100 to 1000 nM
COc1cc2c(cc1-c1cnn(CCC#N)c1)-c1c(c(C(=O)N3CCOCC3(C)C)nn1-c1ccsc1)CO2 [Compound 190, 3-{4-[3-(3,3-Dimethyl-morpholine-4-carbonyl)-7-methoxy-1-thiophen-3-yl-1,4-dihydro-chromeno[4,3-c]pyrazol-8-yl]-pyrazol-1-yl}-propionitrile]	< 100 nM
[2H]C([2H])([2H])OC1CCN(C(=O)c2nn(-c3ccsc3)c3c2COc2cc(OC)c(C=C(C)C)cc2-3)C1 (centres unmarked) [Compound 49]	100 to 1000 nM
[2H]C([2H])([2H])O[C@H]1CC[C@H](N(C(=O)c2nn(-c3ccsc3)c3c2COc2cc(OC)c(-c4ccn(C)c4)cc2-3)C([2H])([2H])[2H])C1 [Compound 197]	1000 to 5000 nM
COc1cc2c(cc1-c1ccn(C)n1)-c1c(c(C(=O)N3CCCC34COC4)nn1-c1ccsc1)CO2 [Compound 174, [7-Methoxy-8-(1-methyl-1H-pyrazol-3-yl)-1-thiophen-3-yl-1,4-dihydro-chromeno[4,3-c]pyrazol-3-yl]-(2-oxa-5-aza-spiro[3.4]oct-5-yl)-methanone]	100 to 1000 nM
COc1cc2c(cc1-c1ccn(C)n1)-c1c(c(C(=O)NC3CC(O)C3)nn1-c1ccsc1)CO2 (centres unmarked) [Compound 137, 7-Methoxy-8-(1-methyl-1H-pyrazol-3-yl)-1-thiophen-3-yl-1,4-dihydro-chromeno[4,3-c]pyrazole-3-carboxylic acid (3-hydroxy-cyclobutyl)-amide]	1000 to 5000 nM
COc1cc2c(cc1OC(C)C)-c1c(c(C(=O)N3CCCC(C(=O)O)CC3)nn1-c1ccsc1)CO2 (centres unmarked) [Compound 25, 1-(8-Isopropoxy-7-methoxy-1-thiophen-3-yl-1,4-dihydro-chromeno[4,3-c]pyrazole-3-carbonyl)-azepane-4-carboxylic acid]	> 5000 nM
